# In patent US12509373B2, “Composition and method for the removal of biofilm” (LANXESS Corporation, priority 2020, dated 2025):
# Assays:
# [1] = test system: anaerobic D. vulgaris biofilms; details: high levels of sugar analogs needed; WO2019/018087; cited from earlier work
# [2] = test system: Desulfovibrio vulgaris biofilm; experiment: Biofilm removal, Crystal Violet Assay (anaerobic, 24 h treatment of pre-formed biofilm); assay type: cell-based
# Method: A lyophilized D. vulgaris pure culture received from ATTCC was resuspended in 500 ul of MB 1249. Aseptically, the content was transferred to a 5¬mL tube of MB1249 medium. The culture was incubated in an anaerobic chamber at 30° C. for 72 hrs. Subsequently, a stock culture with a final concentration of 25% glycerol was prepared by adding equal volumes of culture and 50% glycerol. 1 ml of culture was then transferred to 2-ml cryogenic vials and stored AT-80c. The purity of the stock culture was evaluated through PCR, by amplifying the 16S rDNA region, and thus, it was verified that the original ATCC sample was a pure culture.
# A 10% culture was prepared by taking 1 mL of stock culture and adding it to 9 mL of MB1249, then the culture was placed into a 30° C. side incubator within the chamber and incubated for 72 hours. After 72 hours of incubation, the 10-ml D. vulgaris culture was added to 40 ml of MB1249 medium and incubated for 48 hours. After the incubation time, the optical density of the culture was determined by taking 100 μL of culture and adding it to 900 μL of MB1249 in a cuvette. Another cuvette was filled with 1 mL of MB1249 for a blank. Then, each of culture cuvettes were read and their optical density (O.D.) was recorded by using the Thermofisher Spectronic 200 Spectrophotometer at 620 nm. Using a C1V1=C2V2 calculation and the optical density, the final concentration of culture added to the 96 well plates was ˜0.1 O.D. Then, NUNC Round bottom 96 well plates were filled with culture and anaerobic PBS+10% MB1249. The plates were placed into the side incubator of the anaerobic chamber at 30° C. for 24 hours to form biofilm.
# After 24 hours of incubation at 30° C., all plates were removed from the incubator and the volume from each well was taken out with a multi-channel pipette. Then, the wells were re-filled with PBS+10% MB1249 and treatments.
# The sugar analogues used in the treatment were α-Methyl D-Mannoside (αMM) and 2-Deoxy-D-Glucose (2DG). Both αMM and 2DG were purchased from Sigma. Stocks were prepared (W/V) by weighing sugar and adding anaerobic water inside the anaerobic chamber. The Glutaraldehyde, AQUCAR™ GA50 (“Glutaraldehyde”), was prepared outside of the chamber (V/V) as a safety measure. Each of the components were added at their respective concentrations for a final volume of 200 ul per well. In Table 3, the concentrations used for the synergy experiments are listed. Each experiment was done with at least six replicates for different treatments and at least 8 replicates for non-treatment controls.
# Plates were then sealed with a titer-top and placed into anaerobic boxes with a gas pack. Then, incubated in an aerobic shaking incubator, 30° C. at 115 RPM. After 24 hours, the plates were processed using a Crystal Violet Assay.
# After 24 hours of treatment, all the treatment solution was gently removed from plates using a multi-channel pipette. Then, 250 μL of DI water was re-filled into the wells. This step was then repeated so the plates were each rinsed twice. If residual DI water was in plates, they were inverted and gently patted onto a thick paper towel. Then, the plates were air dried in a ventilated hood.
# To fix the biofilm in the wells, 250 μL per well of methanol was used, waiting time 5 minutes. This methanol was then removed and allowed to air dry. […] Then, the plates were placed into the Biotek Cytation 5, and the optical density (OD) was read at 600 nm. […]
smiles,measurement,setting,value
"CO[C@H]1O[C@H](CO)[C@@H](O)[C@H](O)[C@@H]1O [αMM, α-Methyl D-Mannoside]",dispersal of anaerobic D. vulgaris biofilms,[1],disperse anaerobic D. vulgaris biofilms
same,% OD compared to no-treatment control,"[2]; standalone, 2000 ppm",100.3%
"O=CC[C@@H](O)[C@H](O)[C@H](O)CO [2DG, 2-Deoxy-D-Glucose]",dispersal of anaerobic D. vulgaris biofilms,[1],disperse anaerobic D. vulgaris biofilms
same,% OD compared to no-treatment control,"[2]; standalone, 2000 ppm",101.7%
O=CCCCC=O [Glutaraldehyde],% OD compared to no-treatment control,"[2]; Glutaraldehyde 25 ppm alone (2DG 0 ppm), 2DG combination experiment",92.7%
same,% OD compared to no-treatment control,"[2]; Glutaraldehyde 25 ppm alone (αMM 0 ppm), αMM combination experiment",99.3%
same,% OD compared to no-treatment control,"[2]; standalone, 2500 ppm",97.4%
